Test results: US11759462B2, “Spirocyclic compounds as tryptophan hydroxylase inhibitors” (priority 2013, dated 2023)

The compounds below were run against T1, Recombinant human TPH1 (MBP tagged) (Homo sapiens, UniProt P17752) (assay: TPH1 in vitro inhibition assay (kinetic fluorescence)). Settings: TPH1 Range (TPH1 inhibition IC50).
T1 construct: cloning full length human TPH1 cDNA in to a bacterial pMAL-c5E expression vector; made in house; host or cells: E. coli BL21 (DE3)
T1 sequence (P17752 1-444): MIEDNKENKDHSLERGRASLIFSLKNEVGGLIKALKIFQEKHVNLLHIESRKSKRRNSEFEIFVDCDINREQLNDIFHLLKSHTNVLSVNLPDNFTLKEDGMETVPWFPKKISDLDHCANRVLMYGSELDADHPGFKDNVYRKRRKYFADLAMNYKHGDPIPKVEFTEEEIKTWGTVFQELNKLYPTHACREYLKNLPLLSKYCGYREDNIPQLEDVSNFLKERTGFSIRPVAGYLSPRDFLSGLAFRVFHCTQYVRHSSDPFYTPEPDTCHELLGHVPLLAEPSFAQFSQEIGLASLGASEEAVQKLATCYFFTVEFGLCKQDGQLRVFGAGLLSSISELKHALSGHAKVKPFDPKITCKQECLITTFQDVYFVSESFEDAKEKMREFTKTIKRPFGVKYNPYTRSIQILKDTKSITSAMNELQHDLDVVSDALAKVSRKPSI
Assay type: biochemical
From the text: Recombinant human TPH1 (rTPH1 GenBank™ accession no. NP_004179) was expressed by cloning full length human TPH1 cDNA in to a bacterial pMAL-c5E expression vector to produce maltose-binding protein (MBP) TPH1 fusion proteins. E. coli BL21 (DE3) containing pMAL-c5E-TPH1 was used for protein generation and the recombinant protein was purified utilizing standard column chromatography techniques. The MBP tagged TPH1 (MBP-TPH1) was used directly to screen compounds as described below. Recombinant human TPH2 (rTPH2 GenBank™ accession no. 173353), PheOH (rPheOH GenBank™ accession no. K03020) and TH (rTH GenBank™ accession no. L20679) with an MBP tag were produced similarly.
TPH1 activities were measured in an assay containing 200 mM ammonium sulfate, 7 mM DTT, 50 μg/mL catalase, 25 μM ammonium iron sulfate, 50 mM MES, pH 7.1. Test compounds were diluted in 100% DMSO and added to the assay plate in 1 μL aliquots at 100× final concentration. Fifty microliters of assay buffer containing 30 nM TPH1 enzyme (MBP tagged) were added to the plate wells containing the test compound by the use of an Eppendorf repeater pipette. The reaction was initiated by the addition of 50 μL of assay buffer containing 60 μM tryptophan and 72 μM 6-6-methyltetra-hydropterin (2× final concentration) by the use of a Multidrop (LabSystems). Final reaction conditions were 15 nM TPH1 enzyme, 30 μM tryptophan, 36 μM 6-methyltetra-hydropterin, 200 mM ammonium sulfate, 7 mM DTT, […], 25 μM ferrous ammonium sulfate, 50 mM MES, pH 7.1, with atmospheric oxygen at room temperature. The plate was immediately placed onto an M5 plate reader (Molecular Devices) for kinetic fluorescence measurement using an excitation setting of 300 nm and an emission setting of 335 nm. Fluorescence reads are recorded in kinetic mode for 300 seconds (5 minutes).
Kinetic assay data for compounds at specific concentrations was translated into slopes using the Softmax Pro software on a Spectramax reader, and compound inhibition slopes were compared with wells containing enzyme, substrate and cofactor in the absence of inhibitor (100%), and wells containing substrate and cofactor in the absence of enzyme (0%). DMSO concentration in the assay was 1%. […] IC50's were determined using Graphpad Prism.

SMILES | IC50 [nM]
COc1ccc(-c2ccc([C@@H](Oc3cc(N4CCC5(CC4)CN[C@H](C(=O)O)C5)nc(N)n3)C(F)(F)F)c(-n3ccc(C)n3)c2)cc1 [Example 1bm, (S)-8-(2-amino-6-((R)-2,2,2-trifluoro-1-(4′-methoxy-3-(3-methyl-1H-pyrazol-1-yl)-[1,1′-biphenyl]-4-yl)ethoxy)pyrimidin-4-yl)-2,8-diazaspiro[4.5]decane-3-carboxylic acid] | < 50

Same assay, conditions: read-out: TPH1 Range (TPH1 inhibition IC50)

SMILES | IC50 [nM]
Cc1ccn(-c2cc(-c3cc(Cl)cc(Cl)c3)ccc2[C@@H](Oc2cc(N3CCC4(CC3)CN[C@H](C(=O)O)C4)nc(N)n2)C(F)(F)F)n1 [Example 1bi, (S)-8-(2-amino-6-((R)-1-(3′,5′-dichloro-3-(3-methyl-1H-pyrazol-1-yl)-[1,1′-biphenyl]-4-yl)-2,2,2-trifluoroethoxy)pyrimidin-4-yl)-2,8-diazaspiro[4.5]decane-3-carboxylic acid] | < 50
Cc1cc(-c2ccc([C@@H](Oc3cc(N4CCC5(CC4)CN[C@H](C(=O)O)C5)nc(N)n3)C(F)(F)F)c(-n3ccc(C)n3)c2)cc(C(C)(C)C)c1 [Example 1bj, (S)-8-(2-amino-6-((R)-1-(3′-(tert-butyl)-5′-methyl-3-(3-methyl-1H-pyrazol-1-yl)-[1,1′-biphenyl]-4-yl)-2,2,2-trifluoroethoxy)pyrimidin-4-yl)-2,8-diazaspiro[4.5]decane-3-carboxylic acid] | 50 to 300
Cc1ccn(-c2cc(-c3cccc(Cl)c3)ccc2[C@@H](Oc2cc(N3CCC4(CC3)CN[C@H](C(=O)O)C4)nc(N)n2)C(F)(F)F)n1 [Example 1bk, (S)-8-(2-amino-6-((R)-1-(3′-chloro-3-(3-methyl-1H-pyrazol-1-yl)-[1,1′-biphenyl]-4-yl)-2,2,2-trifluoroethoxy)pyrimidin-4-yl)-2,8-diazaspiro[4.5]decane-3-carboxylic acid] | < 50
Cc1ccn(-c2cc(-c3ccc(C(F)(F)F)c(Cl)c3)ccc2[C@@H](Oc2cc(N3CCC4(CC3)CN[C@H](C(=O)O)C4)nc(N)n2)C(F)(F)F)n1 [Example 1bl, (S)-8-(2-amino-6-((R)-1-(3′-chloro-3-(3-methyl-1H-pyrazol-1-yl)-4′-(trifluoromethyl)-[1,1′-biphenyl]-4-yl)-2,2,2-trifluoroethoxy)pyrimidin-4-yl)-2,8-diazaspiro[4.5]decane-3-carboxylic acid] | < 50
CCCCOc1ccc(-c2ccc([C@@H](Oc3cc(N4CCC5(CC4)CN[C@H](C(=O)O)C5)nc(N)n3)C(F)(F)F)c(-n3ccc(C)n3)c2)cc1F [Example 1ca, (S)-8-(2-amino-6-((R)-1-(4′-butoxy-3′-fluoro-3-(3-methyl-1H-pyrazol-1-yl)-[1,1′-biphenyl]-4-yl)-2,2,2-trifluoroethoxy)pyrimidin-4-yl)-2,8-diazaspiro[4.5]decane-3-carboxylic acid] | < 50

Further lines, results first:

IC50 [nM] | SMILES
< 50 | CCOc1ccc(-c2ccc([C@@H](Oc3cc(N4CCC5(CC4)CN[C@H](C(=O)O)C5)nc(N)n3)C(F)(F)F)c(-n3ccc(C)n3)c2)cc1F [Example 1bn, (S)-8-(2-amino-6-((R)-1-(4′-ethoxy-3′-fluoro-3-(3-methyl-1H-pyrazol-1-yl)-[1,1′-biphenyl]-4-yl)-2,2,2-trifluoroethoxy)pyrimidin-4-yl)-2,8-diazaspiro[4.5]decane-3-carboxylic acid]
50 to 300 | Cc1ccn(-c2cc(-c3cc(F)c(F)c(F)c3)ccc2[C@@H](Oc2cc(N3CCC4(CC3)CN[C@H](C(=O)O)C4)nc(N)n2)C(F)(F)F)n1 [Example 1bo, (S)-8-(2-amino-6-((R)-2,2,2-trifluoro-1-(3′,4′,5′-trifluoro-3-(3-methyl-1H-pyrazol-1-yl)-[1,1′-biphenyl]-4-yl)ethoxy)pyrimidin-4-yl)-2,8-diazaspiro[4.5]decane-3-carboxylic acid]
< 50 | Cc1ccn(-c2cc(-c3ccc(C)c(Cl)c3)ccc2[C@@H](Oc2cc(N3CCC4(CC3)CN[C@H](C(=O)O)C4)nc(N)n2)C(F)(F)F)n1 [Example 1bp, (S)-8-(2-amino-6-((R)-1-(3′-chloro-4′-methyl-3-(3-methyl-1H-pyrazol-1-yl)-[1,1′-biphenyl]-4-yl)-2,2,2-trifluoroethoxy)pyrimidin-4-yl)-2,8-diazaspiro[4.5]decane-3-carboxylic acid]
< 50 | Cc1ccn(-c2cc(-c3ccc(OC(F)(F)F)c(C)c3)ccc2[C@@H](Oc2cc(N3CCC4(CC3)CN[C@H](C(=O)O)C4)nc(N)n2)C(F)(F)F)n1 [Example 1bq, (S)-8-(2-amino-6-((R)-2,2,2-trifluoro-1-(3′-methyl-3-(3-methyl-1H-pyrazol-1-yl)-4′-(trifluoromethoxy)-[1,1′-biphenyl]-4-yl)ethoxy)pyrimidin-4-yl)-2,8-diazaspiro[4.5]decane-3-carboxylic acid]
< 50 | Cc1ccn(-c2cc(-c3ccc(OC(C)C)c(Cl)c3)ccc2[C@@H](Oc2cc(N3CCC4(CC3)CN[C@H](C(=O)O)C4)nc(N)n2)C(F)(F)F)n1 [Example 1bv, (S)-8-(2-amino-6-((R)-1-(3′-chloro-4′-isopropoxy-3-(3-methyl-1H-pyrazol-1-yl)-[1,1′-biphenyl]-4-yl)-2,2,2-trifluoroethoxy)pyrimidin-4-yl)-2,8-diazaspiro[4.5]decane-3-carboxylic acid]
50 to 300 | Cc1ccn(-c2cc(-c3ccc4ccccc4c3)ccc2[C@@H](Oc2cc(N3CCC4(CC3)CN[C@H](C(=O)O)C4)nc(N)n2)C(F)(F)F)n1 [Example 1bw, (S)-8-(2-amino-6-((R)-2,2,2-trifluoro-1-(2-(3-methyl-1H-pyrazol-1-yl)-4-(naphthalen-2-yl)phenyl)ethoxy)pyrimidin-4-yl)-2,8-diazaspiro[4.5]decane-3-carboxylic acid]
< 50 | Cc1ccn(-c2cc(-c3ccc(OCc4ccccc4)c(F)c3)ccc2[C@@H](Oc2cc(N3CCC4(CC3)CN[C@H](C(=O)O)C4)nc(N)n2)C(F)(F)F)n1 [Example 1bx, (S)-8-(2-amino-6-((R)-1-(4′-(benzyloxy)-3′-fluoro-3-(3-methyl-1H-pyrazol-1-yl)-[1,1′-biphenyl]-4-yl)-2,2,2-trifluoroethoxy)pyrimidin-4-yl)-2,8-diazaspiro[4.5]decane-3-carboxylic acid]
< 50 | Cc1ccn(-c2cc(-c3ccc(OC(C)C)c(C)c3)ccc2[C@@H](Oc2cc(N3CCC4(CC3)CN[C@H](C(=O)O)C4)nc(N)n2)C(F)(F)F)n1 [Example 1by, (S)-8-(2-amino-6-((R)-2,2,2-trifluoro-1-(4′-isopropoxy-3′-methyl-3-(3-methyl-1H-pyrazol-1-yl)-[1,1′-biphenyl]-4-yl)ethoxy)pyrimidin-4-yl)-2,8-diazaspiro[4.5]decane-3-carboxylic acid]
< 50 | CCCOc1ccc(-c2ccc([C@@H](Oc3cc(N4CCC5(CC4)CN[C@H](C(=O)O)C5)nc(N)n3)C(F)(F)F)c(-n3ccc(C)n3)c2)cc1F [Example 1bz, (S)-8-(2-amino-6-((R)-2,2,2-trifluoro-1-(3′-fluoro-3-(3-methyl-1H-pyrazol-1-yl)-4′-propoxy-[1,1′-biphenyl]-4-yl)ethoxy)pyrimidin-4-yl)-2,8-diazaspiro[4.5]decane-3-carboxylic acid]
